Data published in patent US20110112104A1, “TRICYCLIC COMPOUNDS, A PROCESS FOR THEIR PREPARATION AND PHARMACEUTICAL COMPOSITIONS CONTAINING THEM” (LES LABORATOIRES SERVIER, priority 2008, published 2011).

Tested on: caspase 3
Assay: Induction of caspase activity in vitro
Format: cell-based, human
Conditions: H146 small-cell lung carcinoma cells, compound at 10 μM, 6 hours exposure
Description: This study was carried out on the following human tumour cell line: • 1 small-cell lung carcinoma, H146. This cell line is cultured in an incubator at 37° C. in the presence of 5% CO2. More specifically, the H146 cells are cultured in complete RPMI 1640 medium containing 10% foetal calf serum, 2 mM glutamine, 50 units/ml of penicillin, 50 μg/ml of streptomycin and 10 mM Hepes buffer, pH=7.4. The cells are distributed onto 6-well plates and exposed to the test compounds for 6 hours. They are then collected and lysed and the caspase activity is measured in the cell lysates. This enzymatic measurement is carried out by measuring the appearance of a fluorigenic cleavage product (Pharmacia).

CN(C)CC[C@H](CSc1ccccc1)Nc1ccc(S(=O)(=O)NC(=O)c2cc3c(cn2)N2CCN(Cc4ccccc4-c4ccc(Cl)cc4)CC2C3)cc1[N+](=O)[O-].Cl.Cl.Cl (stereo partly drawn) [Example 1, N-({2-[(4′-Chloro[1,1′-biphenyl]-2-yl)methyl]-1,2,3,4,10,10a-hexahydropyrido[4′,3′:4,5]pyrrolo[1,2-a]pyrazin-8-yl}carbonyl)-4-({(1R)-3-(dimethylamino)-1-[(phenylsulphanyl)methyl]propyl}amino)-3-nitro-benzenesulphonamide trihydrochloride]
caspase 3 activity in cell lysates: 15395 RFU (Relative Fluorescence Units)

CN(C)CC[C@H](CSc1ccccc1)Nc1ccc(S(=O)(=O)NC(=O)c2ccc3c(n2)CC2CN(Cc4ccccc4-c4ccc(Cl)cc4)CCN32)cc1[N+](=O)[O-].Cl.Cl (stereo partly drawn) [Example 2, N-({8-[(4′-Chloro[1,1′-biphenyl]-2-yl)methyl]-6,7,8,9,9a,10-hexahydropyrido[2′,3′:4,5]pyrrolo[1,2-a]pyrazin-2-yl}carbonyl)-4-({(1R)-3-(dimethylamino)-1-[(phenylsulphanyl)methyl]propyl}amino)-3-nitro-benzenesulphonamide dihydrochloride]
caspase 3 activity in cell lysates: 9948 RFU (Relative Fluorescence Units)

CN(C)CC[C@H](CSc1ccccc1)Nc1ccc(S(=O)(=O)NC(=O)c2cnc3c(c2)CC2CN(Cc4ccccc4-c4ccc(Cl)cc4)CCN32)cc1[N+](=O)[O-].Cl.Cl.Cl (stereo partly drawn) [Example 3, N-({7-[(4′-Chloro[1,1′-biphenyl]-2-yl)methyl]-5,5a,6,7,8,9-hexahydropyrido[3′,2′:4,5]pyrrolo[1,2-a]pyrazin-3-yl}carbonyl)-4-({(1R)-3-(dimethylamino)-1-[(phenylsulphanyl)methyl]propyl}amino)-3-nitro-benzenesulphonamide trihydrochloride]
caspase 3 activity in cell lysates: 17776 RFU (Relative Fluorescence Units)
